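Assay format: 96-well plates, 48-hour exposure. TGI marks complete inhibition of growth.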
What was measured:
Test in all cases: NCI-60 cell line screen, 48 h
[1] = tested on: ACHN renal
[2] = tested on: COLO 205 colon
[3] = tested on: DMS 273 small cell lung
[4] = tested on: HL-60(TB) leukemia
[5] = tested on: LOX IMVI melanoma
[6] = tested on: MOLT-4 leukemia
[7] = tested on: NCI-H23 lung
[8] = tested on: RPMI-8226 leukemia
[9] = tested on: SF-268 CNS
[10] = tested on: SF-295 CNS
[11] = tested on: SK-MEL-2 melanoma
[12] = tested on: SK-MEL-5 melanoma
[13] = tested on: SNB-19 CNS
[14] = tested on: SNB-75 CNS
[15] = tested on: U251 CNS
[16] = tested on: UACC-62 melanoma
[17] = tested on: SK-OV-3 ovarian
[18] = tested on: BT-549 breast
[19] = tested on: DU-145 prostate
[20] = tested on: PC-3 prostate

SMILES	TGI [1]	TGI [2]	TGI [3]	TGI [4]	TGI [5]	TGI [6]	TGI [7]	TGI [8]	TGI [9]	TGI [10]	TGI [11]	TGI [12]	TGI [13]	TGI [14]	TGI [15]	TGI [16]	TGI [17]	TGI [18]	TGI [19]	TGI [20]
CS(=O)(=O)NNS(=O)(=O)c1ccc(F)cc1	> 100 µM	> 100 µM	> 100 µM	> 100 µM	> 100 µM	> 100 µM	> 100 µM	> 100 µM	> 100 µM	> 100 µM	> 100 µM	> 100 µM	> 100 µM	> 100 µM	> 100 µM	> 100 µM				
COc1cccc(C=O)c1[O-].COc1cccc(C=O)c1[O-].[Zn+2]	> 100 µM	> 100 µM	> 100 µM		> 100 µM	> 100 µM	> 100 µM	> 100 µM	> 100 µM	68.1 µM	> 100 µM	> 100 µM	> 100 µM	> 100 µM	> 100 µM	> 100 µM	> 100 µM			
CC(C)c1cccc(C(C)C)c1NC(=O)C(=O)C1CCC2=C(Sc3ccccc3N2)C1=O (stereo not drawn)	> 100 µM	79.7 µM	> 100 µM	> 100 µM	> 100 µM	> 100 µM	> 100 µM	> 100 µM	> 100 µM	> 100 µM	> 100 µM	> 100 µM	> 100 µM	> 100 µM	> 100 µM	> 100 µM	> 100 µM			
O=C1NC(=S)NC(=O)C1=CC1CC1	> 100 µM	> 100 µM	> 100 µM	> 100 µM	> 100 µM	> 100 µM	> 100 µM	> 100 µM	> 100 µM	> 100 µM	> 100 µM	> 100 µM	> 100 µM	> 100 µM	> 100 µM	> 100 µM	> 100 µM			
CC1SC2=NC3=C(c4ccccc4C3=O)C(c3ccccc3Cl)N2C1=O (stereo not drawn)	> 100 µM	> 100 µM	> 100 µM	> 100 µM	> 100 µM	> 100 µM	> 100 µM	> 100 µM	> 100 µM	> 100 µM	> 100 µM	> 100 µM	> 100 µM	> 100 µM	> 100 µM	> 100 µM	> 100 µM			
CCc1ccc(Cc2ccc(CC)c(NC(=O)C(=O)C3NC(=S)NC3=O)c2CC)c(CC)c1NC(=O)C(=O)C1NC(=S)NC1=O (stereo not drawn)	> 100 µM	> 100 µM	> 100 µM	> 100 µM	> 100 µM	> 100 µM	> 100 µM	> 100 µM	> 100 µM		> 100 µM	> 100 µM	> 100 µM	> 100 µM	> 100 µM	> 100 µM	> 100 µM			
Oc1ccc(C2Oc3cc(O)cc4c3C2c2cc(O)cc3c2C(c2cc(O)cc5c2C4C(c2ccc(O)cc2)O5)C(c2ccc(O)cc2)O3)cc1 (stereo not drawn)	> 25 µM	> 25 µM	> 25 µM	14.1 µM	> 25 µM	> 25 µM	22.9 µM	24.3 µM	> 25 µM		12.3 µM	> 25 µM	> 25 µM	15.5 µM	> 25 µM	> 25 µM				
CC(C)(CCl)NC(=O)c1cccc(C(=O)NC(C)(C)CCl)n1	> 100 µM	> 100 µM	> 100 µM	> 100 µM	> 100 µM	> 100 µM	> 100 µM	> 100 µM	> 100 µM	> 100 µM	> 100 µM	> 100 µM	> 100 µM	> 100 µM	> 100 µM		> 100 µM			
Cc1cccc(N=Cc2ccc(N(CCC#N)S(=O)(=O)c3ccccc3)cc2C)c1	> 100 µM	> 100 µM	> 100 µM	> 100 µM	> 100 µM	> 100 µM	> 100 µM	> 100 µM	> 100 µM	> 100 µM	> 100 µM	> 100 µM	> 100 µM	> 100 µM	> 100 µM	> 100 µM	> 100 µM			
COC(=O)N/N=C(\C)CC(=O)Nc1cccc([N+](=O)[O-])c1		> 100 µM	> 100 µM	> 100 µM	> 100 µM	> 100 µM	> 100 µM	> 100 µM	> 100 µM	> 100 µM	> 100 µM	> 100 µM		> 100 µM	> 100 µM	> 100 µM	> 100 µM			
COc1ccc([Se][Se]c2ccc(OC)cc2OC)c(OC)c1	8.89 µM	> 100 µM	19.7 µM	5.89 µM		19.2 µM	15.3 µM	6.96 µM	4.97 µM	4.03 µM	20.8 µM	29.3 µM	21 µM	3.11 µM		4.14 µM	76.5 µM			
C1=CCC[C@@H]2CN3CCCC/C=C\CCCC[C@H]4C[C@H](CN(CCCCCCCC1)C4)[C@H]2CC3	17 µM	16 µM		28.4 µM	16 µM	21.2 µM	34.5 µM	16.7 µM	21.3 µM	16.4 µM	15.9 µM	16.3 µM	22.2 µM	16.5 µM	15.4 µM	16.9 µM	> 50 µM	29.8 µM	> 50 µM	41.2 µM
C=CCCCN1CCCCC1=S	> 100 µM	> 100 µM	> 100 µM	> 100 µM	> 100 µM	> 100 µM	> 100 µM	> 100 µM		> 100 µM	> 100 µM	> 100 µM	> 100 µM	> 100 µM	> 100 µM	> 100 µM	> 100 µM			
O=c1[nH]nc(CNc2ccc(Cl)cc2Cl)c2ccccc12	46.2 µM	> 100 µM	72.9 µM	> 100 µM	> 100 µM	> 100 µM		> 100 µM	44.7 µM	44.7 µM	> 100 µM	50.6 µM	60.7 µM	60.8 µM	37.9 µM	> 100 µM	38.1 µM			

— PubChem BioAssay (NCI)
